{
  "source": "patent US20120244601A1",
  "about": "“[…] INDUCIBLE GENE […]” (priority 2011, published 2012)",
  "molecules": {"B1": {"name": "Riboswitch B: synthetic theophylline-responsive riboswitch, mRNA sequence SEQ ID NO: 12 (nucleic acid)", "chain": "GGUACCGGUGAUACCAGCAUCGUCUUGAUGCCCUUGGCAGCACCCGCUGCGCAGGGGGUAUCAACAAGAUG", "modifications": "chemistry not fully specified"}},
  "key": {"β-galactosidase": {"test_system": "β-galactosidase", "test": "β-Galactosidase activity assay in M. smegmatis", "assay_type": "cell-based"}, "GFP": {"test_system": "GFP", "assay_type": "cell-based, M. tuberculosis"}, "M. smegmatis RiboS-katG": {"test_system": "M. smegmatis RiboS-katG", "test": "Isoniazid antibiotic resistance assay, RiboS-katG strain"}, "lacZ reporter gene": {"test_system": "lacZ reporter gene", "test": "β-galactosidase assay in B. subtilis", "details": "switches B and E compared", "experimental": "B. subtilis strain JH642 (2) was grown at 37° C. in LB with shaking (250 rpm). […] To assay for β-galactosidase activity, strains harboring the riboswitches were grown overnight in LB media with 20 μg/mL kanamycin. In the morning, cells were diluted 1:100 into fresh selective media containing 1 mM IPTG and either 0 or 2 mM theophylline. β-galactosidase assays were performed by the method of Miller (13) using permeabilization with toluene. […] Error bars are ±SD."}},
  "data": [
    {"molecule": "Cn1c(=O)c2[nH]cnc2n(C)c1=O", "note": "[theophylline]", "values": [
      {"measurement": "theophylline concentration of maximum β-galactosidase reporter expression", "setting": "β-galactosidase", "result": "~2", "unit": "mM"},
      {"measurement": "theophylline concentration of maximal GFP expression", "setting": "GFP", "result": "~2", "unit": "mM"}
    ]},
    {"molecule": "NNC(=O)c1ccncc1", "note": "[isoniazid]", "values": [
      {"measurement": "isoniazid EC50 with increasing theophylline concentrations", "setting": "M. smegmatis RiboS-katG; 0-10 mM theophylline", "result": "the EC50 decreases"},
      {"measurement": "isoniazid phenotype in the absence of theophylline", "setting": "M. smegmatis RiboS-katG; no theophylline", "result": "isoniazid resistance phenotype"}
    ]},
    {"molecule": "B1", "values": [
      {"measurement": "activation ratios and levels of expression compared", "setting": "lacZ reporter gene", "result": "comparable activation ratios, but substantially different levels of expression"}
    ]}
  ]
}
